Test results as given in US20260242398A1, “BENZOPYRIMIDIN-4(3H)-ONES AS PI3K INHIBITORS” (OnKure, Inc., priority 2022, published 2026).
pEC50, pIC50: −log10 of the molar value. Where two headings read alike, the source gives them in different places.

What was measured:
Format in all cases: cell-based
[1] = system: T47D cells expressing mutant PI3Ka (H1047R); assay: In vitro cell proliferation (CellTiter-Glo, 72 hours), T47D cells; conditions: inhibition of proliferation, read-out: Avg T-47D EC50
Method: (§1) In Vitro Cell Proliferation: Determination of EC50 Values for Inhibition of Proliferation in T47D Cells Expressing Mutant PI3Ka (H1047R) Mutation and SKBR3 Cells Express WT PI3Ka.
(§2) T47D or SKBR3 cells were trypsinized, resuspended in culture media and seeded onto assay ready plates. T47D culture media consisted of RPMI, 10% FBS and Insulin (0.2 units/mL). SKBR3 culture media consisted of McCoys 5a and 10% FBS. Cells were seeded at a density of 1,500 cells/well and dispensed in 50 uL onto 384 well assay ready plates (Corning, 89089-790). Assay ready plates had previously been stamped with 10-point dilutions of compounds of interest, as well as controls. The Echo655 is used to stamp plates at 40 nL of compound or DMSO. Cells were grown for 72 hours at 37° Celsius and 5% CO2. After 72 hours, cells were equilibrated at room temperature for 15 minutes. 30 uL of CellTiter-Glo reagent is added to the plate, which is then shaken for 30 minutes at temperature at 300-500 rpm. Cells are then read on an Envision plate reader. The percentage of inhibition of proliferation was calculated using the following formula: % Inhibition=100×(LumD−LumSample)/(LumD−LumInh), where D is obtained from cells treated with 0.1% DMSO only; Inh is obtained from cells treated with 10 uM Alpelisib. The effective concentration achieving 50% inhibition of proliferation (EC50) is calculated by fitting the Curve using XWfit (v5.3.1.3), equation 201: Y=Bottom+(Top−Bottom)/(1+10^((Log EC50−X)*HillSlope)).

[2] = system: SKBR3 cells express WT PI3Ka; assay: In vitro cell proliferation (CellTiter-Glo, 72 hours), SKBR3 cells; conditions: inhibition of proliferation
Method: as §1, §2

[3] = system: phosphorylation of AKT (pAKT) in T47D cells expressing mutant PI3Ka (H1047R); assay: In vitro cell pAKT (Ser473) HTRF, T47D cells; conditions: inhibition of pAKT, read-out: Avg T-47D IC50
Method: (§3) In Vitro Cell pAKT: Determination of IC50 Values for Inhibition of Phosphorylation of AKT (pAKT) in T47D Cells Expressing Mutant PI3Ka (H1047R) Mutation and SKBR3 Cells Express WT PI3Ka.
(§4) T47D or SKBR3 cells were trypsinized, resuspended in culture media and seeded onto assay ready plates. T47D culture media consisted of RPMI, 10% FBS and Insulin (0.2 units/mL). SKBR3 culture media consisted of McCoy's 5a and 10% FBS. Cells were seeded at a density of 5000 cells/well and dispensed in 12.5 uL onto 384 well assay ready plates (Perkin Elmer, 6008238)). Assay ready plates had previously been stamped with 10-point dilutions of compounds of interest, as well as controls. The Echo655 is used to stamp plates at 12.5 nL of compound or DMSO. Cells were grown for 6 hour at 37° Celsius and 5% CO2. After 6 hour, 4 uL of Lysis buffer reagent was added to the plate, which was then centrifuged for 1 minute at 1000 rpm. Then the plate was incubated at room temperature for 30 minutes. After 30 minutes, 4 uL of antibody mix containing Eu Cryptate, d2 Cryptate, and detection buffer, was added to the plate. The plate was centrifuged for 1 minute at 1000 rpm and then incubated overnight at room temperature. The plate was read on an Envision plate reader using the HTRF protocol. The percentage of inhibition of AKT phosphorylation was calculated using the following formula: % Inhibition=100×(pAKTHC−pAKTSample)/(pAKTHC−pAKTLC)), where pAKTHC is obtained from cells treated with 0.1% DMSO only; pAKTLC is obtained from cells treated with 10 uM Alpelisib. The IC50 (concentration achieving 50% inhibition of pAKT) is calculated by fitting the Curve using XWfit (v5.3.1.3), equation 201: Y=Bottom+(Top−Bottom)/(1+10^((Log IC50−X)*HillSlope)).

[4] = system: phosphorylation of AKT (pAKT) in SKBR3 cells express WT PI3Ka; assay: In vitro cell pAKT (Ser473) HTRF, SKBR3 cells; conditions: inhibition of pAKT
Method: as §3, §4

CC(Nc1ccccc1C(=O)O)c1cc(C(F)(F)F)cc2c(=O)n(C)c(N3CCN(CC(F)(F)F)CC3)nc12 (single isomer, unassigned) [Example 37, 2-((1-(3-methyl-4-oxo-2-(4-(2,2,2-trifluoroethyl)piperazin-1-yl)-6-(trifluoromethyl)-3,4-dihydroquinazolin-8-yl)ethyl)amino)benzoic acid]
pEC50 [1]: 5.70 to 6.30
pEC50 ([2]; Homo sapiens, SK-BR-3, 72 h): 4.82 to 5.70
pIC50 ([3]; 6 hour): 6.00 to 9.00
pIC50 ([4]; Homo sapiens, SK-BR-3, 6 h): < 4.82

CC(Nc1ccccc1C(=O)O)c1cc(C(F)(F)F)cc2c(=O)n(C)c(N3CCN(CC(F)(F)F)CC3)nc12 (single isomer, unassigned) [Example 38, 2-((1-(3-methyl-4-oxo-2-(4-(2,2,2-trifluoroethyl)piperazin-1-yl)-6-(trifluoromethyl)-3,4-dihydroquinazolin-8-yl)ethyl)amino)benzoic acid]
pEC50 [1]: < 4.82
pEC50 [2]: 4.82 to 5.70
pIC50 ([3]; 6 hour): < 4.82
pIC50 ([4]; 6 hour): < 4.82

Cc1cc(C(C)Nc2ccccc2C(=O)O)c2nc(SCC(C)C)n(C)c(=O)c2c1 (single isomer, unassigned) [Example 39, 2-((1-(2-(isobutylthio)-3,6-dimethyl-4-oxo-3,4-dihydroquinazolin-8-yl)ethyl)amino)benzoic acid]
pEC50 [1]: < 4.82
pEC50 ([2]; Homo sapiens, SK-BR-3, 72 h): < 4.82
pIC50 ([3]; 6 hour): < 4.82
pIC50 ([4]; Homo sapiens, SK-BR-3, 6 h): < 4.82

Cc1cc(C(C)Nc2ccccc2C(=O)O)c2nc(SCC(C)C)n(C)c(=O)c2c1 (single isomer, unassigned) [Example 40, 2-((1-(2-(isobutylthio)-3,6-dimethyl-4-oxo-3,4-dihydroquinazolin-8-yl)ethyl)amino)benzoic acid]
pEC50 [1]: 4.82 to 5.70
pEC50 [2]: < 4.82
pIC50 ([3]; 6 hour): 5.30 to 6.00
pIC50 ([4]; 6 hour): < 4.82

Cc1cc(C(C)Nc2ccccc2C(=O)O)c2nc(Nc3ccc(Cl)cc3)n(C)c(=O)c2c1 (single isomer, unassigned) [Example 41, 2-((1-(2-((4-chlorophenyl)amino)-3,6-dimethyl-4-oxo-3,4-dihydroquinazolin-8-yl)ethyl)amino)benzoic acid]
pEC50 ([1]; Homo sapiens, T47D, 72 h): 4.82 to 5.70
pEC50 [2]: 4.82 to 5.70
pIC50 ([3]; Homo sapiens, T47D, 6 h): < 4.82
pIC50 ([4]; Homo sapiens, SK-BR-3, 6 h): < 4.82

Cc1cc(C(C)Nc2ccccc2C(=O)O)c2nc(Nc3ccc(Cl)cc3)n(C)c(=O)c2c1 (single isomer, unassigned) [Example 42, 2-((1-(2-((4-chlorophenyl)amino)-3,6-dimethyl-4-oxo-3,4-dihydroquinazolin-8-yl)ethyl)amino)benzoic acid]
pEC50 [1]: 4.82 to 5.70
pEC50 [2]: < 4.82
pIC50 ([3]; 6 hour): < 4.82
pIC50 ([4]; 6 hour): < 4.82

Cc1cc(C(C)Nc2ccccc2C(=O)O)c2nc(NCc3ccc(Cl)cc3)n(C)c(=O)c2c1 (single isomer, unassigned) [Example 43, 2-((1-(2-((4-chlorobenzyl)amino)-3,6-dimethyl-4-oxo-3,4-dihydroquinazolin-8-yl)ethyl)amino)benzoic acid]
pEC50 ([1]; Homo sapiens, T47D, 72 h): 4.82 to 5.70
pEC50 ([2]; Homo sapiens, SK-BR-3, 72 h): < 4.82
pIC50 ([3]; 6 hour): 4.82 to 5.30
pIC50 ([4]; Homo sapiens, SK-BR-3, 6 h): < 4.82

Cc1cc(C(C)Nc2ccccc2C(=O)O)c2nc(NCc3ccc(Cl)cc3)n(C)c(=O)c2c1 (single isomer, unassigned) [Example 44, 2-((1-(2-((4-chlorobenzyl)amino)-3,6-dimethyl-4-oxo-3,4-dihydroquinazolin-8-yl)ethyl)amino)benzoic acid]
pEC50 [1]: 4.82 to 5.70
pEC50 [2]: < 4.82
pIC50 ([3]; 6 hour): < 4.82
pIC50 ([4]; 6 hour): < 4.82

Cc1cc(C(C)Nc2ccccc2C(=O)O)c2nc(NC[C@H](C)c3ccccc3)n(C)c(=O)c2c1 (single isomer, unassigned) [Example 45]
pEC50 [1]: 4.82 to 5.70
pEC50 [2]: < 4.82
pIC50 ([3]; 6 hour): < 4.82
pIC50 ([4]; Homo sapiens, SK-BR-3, 6 h): < 4.82

Cc1cc(C(C)Nc2ccccc2C(=O)O)c2nc(NC[C@H](C)c3ccccc3)n(C)c(=O)c2c1 (single isomer, unassigned) [Example 46]
pEC50 [1]: 5.70 to 6.30
pEC50 [2]: 4.82 to 5.70
pIC50 ([3]; 6 hour): 6.00 to 9.00
pIC50 ([4]; 6 hour): < 4.82

Cc1cc(C(C)Nc2ccccc2C(=O)O)c2nc(NC[C@@H](C)c3ccccc3)n(C)c(=O)c2c1 (single isomer, unassigned) [Example 47]
pEC50 [1]: 5.70 to 6.30
pEC50 [2]: < 4.82
pIC50 ([3]; 6 hour): 4.82 to 5.30
pIC50 ([4]; Homo sapiens, SK-BR-3, 6 h): < 4.82
